Source: patent US6534520B2, “Antiviral compounds” (priority 1997, dated 2003)
Values after ≈ are worked out from the molar mass of the structure shown.

Key:
HSV-1 = test: Antiviral activity against HSV-1 (CPE inhibition / neutral red); format: cell-based, herpes simplex virus type 1
HSV-2 = test: Antiviral activity against HSV-2 (CPE inhibition / neutral red); format: cell-based, herpes simplex virus type 2; conditions: HSV-2
[1] = tested on: Respiratory Syncitial Virus (RSV); test: Antiviral activity against RSV (CPE inhibition / neutral red); format: cell-based; conditions: for IC50: human respiratory syncytial virus, read-out: RSV IC50
Influenza A = test: microbe, parasite or virus in culture; format: cell-based; conditions: for IC50: Influenza A virus, read-out: INFLUENZA A IC50
uninfected cells [2] = test: Cytotoxicity run with the Influenza A test; format: cell-based
Description: (§1) Methods For Assay Of Cytotoxicity
(§2) In the CPE inhibition test, two wells of uninfected cells treated with each concentration of test Compound are run in parallel with the infected, treated wells. At the time CPE is determined microscopically, the toxicity control cells are also examined microscopically for any changes in cell appearance compared to normal control cells run in the same plate. These changes may be enlargement, granularity, cells with ragged edges, a filmy appearance, rounding, detachment from the surface of the well, or other changes. These changes are given a designation of T (100% toxic), PVH (partially toxic-very heavy-80%), PH (partially toxic-heavy-60%), P (partially toxic-40%), PS (partially toxic-slight-20%), or 0 (no toxicity-0%), conforming to the degree of cytotoxicity seen.
(§3) In the neutral red dye uptake phase of the antiviral test described above, the two toxicity control wells also receive neutral red and the degree of color intensity is determined spectrophotometrically. A neutral red CC50 (NRCC50) is subsequently determined.
(§4) C. ^3H Thymidine Uptake Assay
(§5) Flat bottom 96 well plates are plated with 5X10E3 Vero-34 cells/well and 1X10E4 Hs68 or Wi-38 cells/well respectively and incubated overnight at 37° C. and 5% CO2/air. After incubation, the supernatant medium is removed and replaced with test Compound dilutions in 2% DMEM (150 ul). The cells are then incubated 48 hours in a 5% CO2 incubator at 37° C.
(§6) 50 μl/well of 10 uCi/ml solution of [3H]-methyl thymidine (specific activity of approx. 2Ci/mmol) is added to the culture medium and incubated overnight (18 hours) in a 5% CO2 incubator at 37° C.
(§7) Cells are then collected onto a fiberglass filter (Printed Filtermat A 1450-421 Wallac) with a Tomtec cell harvester. Suspended cells are collected directly onto filter while for adherent cells, the medium is first removed, then the cells washed with PBS and trypsinized for 2-3 minutes (50 μl trypsin/well) before collecting.
(§8) Filters are dried for 1 hour at 37-40° C. and then placed into bags (1450-microbeta #1450-432 Wallac) with 4.5 ml of Betascint and counts obtained with Microbeta 1450 Wallac (protocol 1).
(§9) The percent of cell proliferation is determined by comparison to the control (no test Compound) and thereby establishing 50% inhibitory concentration is established.

Influenza B = test: microbe, parasite or virus in culture; format: cell-based; conditions: for IC50: Influenza B virus
uninfected cells [3] = test: Cytotoxicity run with the Influenza B test; format: cell-based
Description: as §1, §2, §3, §4, §5, §6, §7, §8, §9

Rhinovirus (RV) = test: Antiviral activity against Rhinovirus (CPE inhibition / neutral red); format: cell-based; conditions: Rhinovirus; for IC50: Enterovirus, read-out: RV IC50
Parainfluenza = test: Antiviral activity against Parainfluenza (CPE inhibition / neutral red); format: cell-based
Adenovirus = test: Antiviral activity against Adenovirus (CPE inhibition / neutral red); format: cell-based; conditions: for IC50: unidentified adenovirus, read-out: ADENOVIRUS IC50
HIVROJO = test: Anti-HIV activity against HIVROJO in PBMCs; format: cell-based; conditions: HIVROJO, PBMCs; for IC50: Human immunodeficiency virus 1, PBMC, read-out: HIVROJO (PBMCs) IC50
PBMCs = test: Cytotoxicity in PBMCs (anti-HIV tests); format: cell-based
uninfected cells [4] = tested on: uninfected cells
uninfected cells [5] = tested on: uninfected cells; remark: listed apart in the source
uninfected cells [6] = tested on: uninfected cells; remark: listed apart in the source
uninfected cells [7] = tested on: uninfected cells; remark: listed apart in the source
uninfected cells [8] = tested on: uninfected cells; remark: listed apart in the source
HIVTEKI = test: Anti-HIV activity against HIVTEKI in PBMCs; conditions: for IC50: Human immunodeficiency virus 1, PBMC, read-out: HIVTEKI (PBMCs) IC50
uninfected cells [9] = test: Cytotoxicity run with the Adenovirus test; conditions: cytotoxicity, Adenovirus test
[10] = Cytotoxicity run with the Influenza A test; format: cell-based
Description: as §1, §2, §3, §4, §5, §6, §7, §8, §9

[11] = Cytotoxicity run with the Influenza B test; format: cell-based
Description: as §1, §2, §3, §4, §5, §6, §7, §8, §9

[12] = Cytotoxicity in PBMCs (anti-HIV tests); format: cell-based; conditions: human; PBMCs, HIVROJO
[13] = Cytotoxicity run with the RSV test
[14] = Cytotoxicity run with the Rhinovirus test
[15] = Cytotoxicity run with the Adenovirus test
[16] = Cytotoxicity run with the Parainfluenza test
[17] = Cytotoxicity run with the HSV-1 test

SMILES: CCCOc1ccccc1CNC(=O)c1ccc2cnccc2n1 [#26, N-(2-propoxybenzyl)-2-[1,6]naphthyridine-2-carboxamide]
- HSV-1 IC50 (HSV-1): 0.36 mg/L
- HSV-2 IC50 (HSV-2): 0.19 mg/L
- RSV IC50 [1]: 4 mg/L
- INFLUENZA A IC50 (Influenza A): 5.6 mg/L
- INFLUENZA A CC50 (uninfected cells [2]): 5.6 mg/L
- INFLUENZA B IC50 (Influenza B): 3.2 mg/L
- INFLUENZA B CC50 (uninfected cells [3]): 5.6 mg/L
- RV IC50 (Rhinovirus (RV)): < 0.01 mg/L
- PARAINFLUENZA IC50 (Parainfluenza): 4 mg/L
- ADENOVIRUS IC50 (Adenovirus): 4 mg/L
- HIVROJO (PBMCs) IC50 (HIVROJO): 4.1 mg/L
- HIVROJO (PBMCs) CC50 (PBMCs): 6.0 mg/L
- HSV-1 CC50 (uninfected cells [4]): 3.2 mg/L
- HSV-2 CC50 (uninfected cells [5]): 1.9 mg/L
- RSV CC50 (uninfected cells [6]): 3 mg/L
- RV CC50 (uninfected cells [7]): 4 mg/L
- PARAINFLUENZA CC50 (uninfected cells [8]): 2 mg/L
- HIVTEKI (PBMCs) IC50 (HIVTEKI): 0.3 mg/L

SMILES: CC(C)Oc1ccccc1NC(=O)Nc1ccc2cnccc2n1 [#46, 1-(2-iso-propoxy-phenyl)-3-[1,6]naphthyridin-2-yl-urea;]
- HSV-1 IC50 (HSV-1): >100 mg/L
- RSV IC50 [1]: >30 mg/L
- INFLUENZA A IC50 (Influenza A): >32 mg/L
- INFLUENZA A CC50 (uninfected cells [2]): 19 mg/L
- INFLUENZA B IC50 (Influenza B): > 32 mg/L
- INFLUENZA B CC50 (uninfected cells [3]): > 22 mg/L
- RV IC50 (Rhinovirus (RV)): 1 mg/L
- PARAINFLUENZA IC50 (Parainfluenza): > 30 mg/L
- ADENOVIRUS IC50 (Adenovirus): > 30 mg/L
- HIVROJO (PBMCs) IC50 (HIVROJO): 3.2 mg/L
- HIVROJO (PBMCs) CC50 (PBMCs): >100 mg/L
- HIVTEKI (PBMCs) CC50 (PBMCs; PBMCs, HIVTEKI columns): >100 mg/L
- HSV-1 CC50 (uninfected cells [4]): >100 mg/L
- RSV CC50 (uninfected cells [6]): 30 mg/L
- RV CC50 (uninfected cells [7]): > 30 mg/L
- PARAINFLUENZA CC50 (uninfected cells [8]): 30 mg/L
- ADENOVIRUS CC50 (uninfected cells [9]): > 30 mg/L
- HIVTEKI (PBMCs) IC50 (HIVTEKI): 4.3 mg/L

SMILES: C=Cc1cncc2ccc(C(=O)NCc3ccccc3OC(C)C)nc12 [#63, 8-(vinyl)-[1,6]Naphthyridine-2-carboxylic acid 2-isopropoxybenzylamine]
- IC50 [1]: 12 mg/L (≈ 34.5 µM)
- IC50 (Influenza A): 5.6 mg/L (≈ 16.1 µM)
- CC50 [10]: 5.6 mg/L (≈ 16.1 µM)
- IC50 (Influenza B): 5.2 mg/L (≈ 15 µM)
- CC50 [11]: 2.4 mg/L (≈ 6.91 µM)
- IC50 (Rhinovirus (RV)): 2 mg/L (≈ 5.76 µM)
- IC50 (Parainfluenza): 10 mg/L (≈ 28.8 µM)
- IC50 (Adenovirus): 9 mg/L (≈ 25.9 µM)
- IC50 (HIVROJO): 0.7 mg/L (≈ 2.01 µM)
- CC50 [12]: 7 mg/L (≈ 20.1 µM)
- CC50 [13]: 5 mg/L (≈ 14.4 µM)
- CC50 [14]: 9 mg/L (≈ 25.9 µM)
- CC50 [15]: 7 mg/L (≈ 20.1 µM)
- IC50 (HIVTEKI): 4.9 mg/L (≈ 14.1 µM)
- CC50 [16]: 8 mg/L (≈ 23 µM)

SMILES: C[C@H](NC(=O)c1nc2ccncc2s1)c1ccccc1 [#62, Thiazolo[5,4-c]pyridine-2-carboxylic acid(1(S)-phenyl-ethyl)amide]
- HCMV IC50 (HCMV): ˜1 μg/ml

SMILES: Cc1cncc2ccc(C(=O)NCc3ccccc3OC(C)C)nc12 [#64, 8-(methyl)-[1,6]Naphthyridine-2-carboxylic acid 2-isopropoxybenzylamine]
- IC50 (HSV-1; Human alphaherpesvirus 1, read-out: HSV-1 IC50): 2 mg/L (≈ 5.96 µM)
- IC50 [1]: 0.6 mg/L (≈ 1.79 µM)
- IC50 (Influenza A): 2.4 mg/L (≈ 7.16 µM)
- CC50 [10]: 2.4 mg/L (≈ 7.16 µM)
- IC50 (Influenza B): 1.8 mg/L (≈ 5.37 µM)
- CC50 [11]: 1.8 mg/L (≈ 5.37 µM)
- IC50 (Rhinovirus (RV)): > 0.08 mg/L
- IC50 (Parainfluenza): 1 mg/L (≈ 2.98 µM)
- IC50 (Adenovirus): 3 mg/L (≈ 8.94 µM)
- IC50 (HIVROJO): 0.28 mg/L (≈ 0.835 µM)
- CC50 [12]: 4.3 mg/L (≈ 12.8 µM)
- CC50 [13]: 0.6 mg/L (≈ 1.79 µM)
- CC50 [17]: 3.5 mg/L (≈ 10.4 µM)
- CC50 [14]: 16 mg/L (≈ 47.7 µM)
- CC50 [15]: 1 mg/L (≈ 2.98 µM)
- IC50 (HIVTEKI): 0.8 mg/L (≈ 2.39 µM)
- CC50 [16]: 1 mg/L (≈ 2.98 µM)
